Where a SMILES comes first, the peptide text is derived from it. The star is where a group is joined. X1 = O=C(CCCC(=O)*)OCc1cc(O)c2c(c1)C(=O)c1cccc(O)c1C2=O
Legend:
[1] = test system: NK92 cells killing K562 target cells; experiment: NK92 cell-mediated cytotoxicity against K562 cells, LDH release; type: cell-based, Human; conditions: NK92 treated 48 h with 5 to 20 μM, E:T ratio 10:1, 4 h with K562, LDH release, 4 independent experiments
Procedure: To determine NK-92’s cell cytotoxicity, CytoTox 96 non-radioactive cytotoxicity assay (Promega, Madison, WI) was used, based on the colorimetric detection of the released enzyme LDH. NK-92 cells were harvested, washed, counted, and diluted at the concentration of 1 × 10^6 cells/mL in BM with 10% FCS and 100 μ/mL of IL-2. […] Target cells were harvested, washed, resuspended to 1 × 10^5 cells/mL in BM, added, and incubated with effector cells for 4 h at 37 °C employing incresingincreasing effector/target cell ratio ranging from 0.625:1 to 10:1 in triplicate. A total of 50 μL of supernatants were assayed for LDH activity according to the manufacturer’s instruction. Controls for spontaneous and maximum LDH release in effector and target cells were also assayed. The calculation of cytotoxicity percentage was as follows: (Experimental—Effector Spontaneous—Target spontaneous)/(Target Maximum—Target Spontaneous) × 100. Data are expressed as mean ± standard deviation from 4 independent experiments. […] The statistical analysis was performed with GraphPad Prism 8.

NK-92 cells [2] = experiment: Growth inhibition of NK92 cells, WST-8 assay; conditions: 20, 10, 5 and 1 µM, 24, 48 and 72 h, WST-8, two independent experiments
Procedure: NK-92 cell lines in exponential phase of growth were collected, extensively washed with warm RPMI-1640, and seeded (in triplicate) in 96-well microtiter Costar plates (Costar, Rochester, NY, USA) at a density of 5 × 10^3 cells/mL. The cells were cultured in BM containing recombinant IL-2(100 IU/mL). In the growth inhibition assays, NK92 cells were maintained for 24, 48, and 72 h at 37 °C alone or in the presence of 20, 10, 5, and 1 µM of Aloe-emodin, glutaryl derivatives of AE and AE-CPP-LTV (6). For all above-described experiments, cell survival was determined by WST-8 assay (Orangu™ Cell Counting SolutionWST-8 cell proliferation kit (Aurogene, Rome, Italy), after 24, 48, and 72 h treatment at 37 °C in 5% CO2. Cells were treated with different compounds/absorbance values of control (cells incubated with vehicle alone) cells * 100%. Statistical analysis was performed by the Student’s t-test (2-tailed) to assess differences between means of data analyzed. The p-values are indicated in the figure legends. The statistical analysis of differences was performed with GraphPad Prism 8.

A549 cells = experiment: MTT cell viability assay in A549 cells; type: cell-based, Human
Procedure: (§1) The compounds (2), (3), and (6), were evaluated for cell viability effects using the MTT assay on SKBR3 and A549 cells at 24, 48, and 72 h at different concentrations. Cell lines were seeded into 96-well microtiter plates (Corning, Inc., Corning, NY, USA) at a density of 1 × 10^4 cells/well. After 24 h, cells were exposed to increased concentrations of compounds (previously prepared in PBS to obtain a stock solution of 1 mM) in cell culture medium. After an incubation time of 24, 48, and 72 h, media were removed and MTT (Sigma, Deisenhofen, Germany) diluted in culture media was added to each well at 0.5 mg/mL. Plates were incubated for 2 h at 37 °C in 5% CO2 incubator; unreacted dye was removed, and cells were solubilized in DMSO (Merck, Darmstadt, Germany). Absorbance was read at 570 nm by an ELISA plate reader (Biorad). Data were expressed as cell metabolic activity, which was calculated as the absorbance value of cells treated with different compounds/absorbance value of control (cells incubated with vehicle alone) cells * 100%. All experiments were performed in triplicate, and all data were expressed as the mean ± standard deviation. One-way ANOVA with Dunnett’s multiple comparisons test was performed with respect to the controls (**** p < 0.0001).

SKBR3 cells = experiment: MTT cell viability assay in SKBR3 cells; type: cell-based, Human
Procedure: as §1

NK-92 cells [3] = experiment: Apoptosis in NK-92 cells, Annexin V-FITC flow cytometry; type: cell-based, Human; conditions: 48 h
Procedure: (§2) Apoptosis was quantified using FITC-conjugated annexin V (AV) according to the manufacturer’s protocol (Marine Biological Laboratory, Woods Hole, MA, USA). Annexin V-FITC staining in NK-92 cell lines was determined after 48 h in the absence or presence of different amounts of Aloe-emodin (9 mM stock solution in DMSO) ranging from 6.25 to 50 μM. Proliferation was evaluated by measuring Ki-67 nuclear antigen expression using FITC-labeled anti-human Ki-67 mAb according to the manufacturer’s protocol (BD Biosciences, San Jose, CA, USA). Acquisition was performed on a FACSCalibur flow cytometer (BD Biosciences) and at least 10,000 events per sample were run. Data were analyzed using the Cell Quest Pro software (BD Biosciences) and expressed as mean ± standard deviation from 2 independent experiments.

NK-92 cells [4] = experiment: Proliferation of NK-92 cells, Ki-67 flow cytometry; type: cell-based, Human; conditions: 48 h, all concentrations except 50 μM
Procedure: as §2

SMILES	NK92-mediated cytotoxicity against K562 compared with untreated NK92 cells [1]	growth inhibition of NK-92 cells (NK-92 cells [2])	comparative cell viability reduction (3 versus AE (2); 6 versus 3 at 20 μM) (A549 cells)	concentration at which effect on cell viability is already seen (A549 cells)	comparative cell viability reduction (3 versus AE (2); 6 versus 3 at 20 μM) (SKBR3 cells)	concentration at which effect on cell viability is already seen (SKBR3 cells)	effect on NK-92 cells at the higher dose (NK-92 cells [3]; 50 μM)	apoptosis of NK-92 cells (NK-92 cells [3]; 6.25 to 50 μM, all concentrations except 50 μM, Annexin V-FITC)	proliferation of NK-92 cells (NK-92 cells [4])
O=C(O)CCCC(=O)OCc1cc(O)c2c(c1)C(=O)c1cccc(O)c1C2=O [compound 3, 5-((4,5-dihydroxy-9,10-dioxo-9,10-dihydroanthracen-2-yl)methoxy)-5-oxopentanoic acid]	less NK92-mediated cytotoxicity than the control sample	did not induce growth inhibition	more effective	effective already at 5 µM	more effective	effective already at 5 µM			
O=C1c2cccc(O)c2C(=O)c2c(O)cc(CO)cc21 [compound 2, 8-dihydroxy-3-hydroxymethyl-anthraquinone]							cytotoxic effect	neither AE (2) induced apoptosis or affected proliferation	neither AE (2) induced apoptosis or affected proliferation
CC(C)C[C@H](NC(=O)CNC(=O)[C@@H]1CCCN1C(=O)CNC(=O)[C@@H](NC(=O)[C@H](CCCCN)NC(=O)[C@H](CCCNC(=N)N)NC(=O)[C@H](CCCCN)NC(=O)[C@H](CCCCN)NC(=O)[C@H](CCCCN)NC(=O)[C@@H]1CCCN1C(=O)CCCC(=O)OCc1cc(O)c2c(c1)C(=O)c1cccc(O)c1C2=O)C(C)C)C(=O)N[C@H](C(=O)N[C@H](C(=O)N[C@@H](CO)C(=O)N1CCC[C@H]1C(=O)N[C@@H](Cc1c[nH]c2ccccc12)C(=O)N[C@@H](Cc1ccc(O)cc1)C(=O)O)C(C)C)[C@@H](C)O [compound 6] (X1-PKKKRKVGPGLTVSPWY-OH)		did not induce growth inhibition							
